Results from patent publication US10927136B2, “Phosphorus prodrugs of pyrazolo-substituted pyrimidine sGC stimulators” (Cyclerion Therapeutics, Inc., priority 2016, dated 2021).
In brackets after ≈: the same amount, converted by molar mass. Where two headings read alike, the source gives them in different places.

Assays:
[1] = Thermodynamic solubility measurements; format: physicochemical; conditions: aqueous buffer, pH 7, aqueous buffer, thermodynamic from solid
Protocol: Approximately 1 mg of test compound was weighed into 1.5 mL Eppendorf tubes and 1.5 mL of aqueous buffer of a given pH was added. The samples were vortexed and placed on a shaker at 150 RPM for 2-5 days. The samples were harvested and then centrifuged at 12 K RPM for 20 minutes. The supernatant was diluted twice with Acetonitrile (ACN) and analyzed by UPLC. To dilute the samples, 200 uL of supernatant was taken and discarded. Then, 400 uL of supernatant (with 200 uL intervals) was taken and added to 400 uL of acetonitrile (with 200 uL intervals).
UPLC conditions: Mobile Phase A: 0.1% TFA in Water; Mobile Phase B: 0.1% TFA in Acetonitrile; Column: Acquity BEH C18, 1.7 um, 2.1×50 mm; Injection Volume: 2-3 uL; Autosampler Temperature: Ambient; Column Temperature: 25° C.; Run Time: 10 minutes; Flow Rate: 0.45 mlJmin; Collected Wavelengths: 220 nm, 245 nm, 254 nm, 280 nm, PDA Spectrum (190-400 nm); Wavelength Used for Analysis: 254 nm

[2] = biological target: T1, soluble guanylate cyclase (sGC) (Homo sapiens, UniProt Q02108+Q02153); test: sGC-HEK-cGMP assay with LC/MS detection; format: cell-based; conditions: for EC50: HEK293 cells, 10 μM DETA-NONOate, cGMP by LC/MS, read-out: Absolute EC50; for sGC agonism as compared to parent drug: HEK assay with LC/MS detection
T1 construct: endogenously expressing soluble guanylate cyclase (sGC); endogenous in cells; host or cells: HEK293
T1 sequence (Q02153 1-619): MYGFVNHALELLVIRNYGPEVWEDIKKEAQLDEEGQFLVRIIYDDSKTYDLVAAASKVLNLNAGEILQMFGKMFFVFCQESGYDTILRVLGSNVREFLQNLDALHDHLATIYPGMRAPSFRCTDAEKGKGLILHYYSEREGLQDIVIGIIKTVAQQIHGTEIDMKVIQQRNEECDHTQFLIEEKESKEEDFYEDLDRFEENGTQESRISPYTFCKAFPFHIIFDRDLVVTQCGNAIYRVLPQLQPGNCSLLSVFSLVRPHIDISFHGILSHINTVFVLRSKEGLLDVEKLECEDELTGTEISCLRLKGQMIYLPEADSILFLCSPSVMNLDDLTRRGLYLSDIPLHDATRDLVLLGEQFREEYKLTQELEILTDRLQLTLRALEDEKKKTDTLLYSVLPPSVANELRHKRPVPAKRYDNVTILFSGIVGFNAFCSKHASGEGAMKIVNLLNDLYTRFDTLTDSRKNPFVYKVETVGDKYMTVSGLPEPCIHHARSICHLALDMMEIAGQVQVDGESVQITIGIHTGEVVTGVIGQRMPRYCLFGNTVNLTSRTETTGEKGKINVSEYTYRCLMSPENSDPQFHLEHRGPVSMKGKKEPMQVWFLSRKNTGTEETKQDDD
T1 sequence (Q02108 1-690): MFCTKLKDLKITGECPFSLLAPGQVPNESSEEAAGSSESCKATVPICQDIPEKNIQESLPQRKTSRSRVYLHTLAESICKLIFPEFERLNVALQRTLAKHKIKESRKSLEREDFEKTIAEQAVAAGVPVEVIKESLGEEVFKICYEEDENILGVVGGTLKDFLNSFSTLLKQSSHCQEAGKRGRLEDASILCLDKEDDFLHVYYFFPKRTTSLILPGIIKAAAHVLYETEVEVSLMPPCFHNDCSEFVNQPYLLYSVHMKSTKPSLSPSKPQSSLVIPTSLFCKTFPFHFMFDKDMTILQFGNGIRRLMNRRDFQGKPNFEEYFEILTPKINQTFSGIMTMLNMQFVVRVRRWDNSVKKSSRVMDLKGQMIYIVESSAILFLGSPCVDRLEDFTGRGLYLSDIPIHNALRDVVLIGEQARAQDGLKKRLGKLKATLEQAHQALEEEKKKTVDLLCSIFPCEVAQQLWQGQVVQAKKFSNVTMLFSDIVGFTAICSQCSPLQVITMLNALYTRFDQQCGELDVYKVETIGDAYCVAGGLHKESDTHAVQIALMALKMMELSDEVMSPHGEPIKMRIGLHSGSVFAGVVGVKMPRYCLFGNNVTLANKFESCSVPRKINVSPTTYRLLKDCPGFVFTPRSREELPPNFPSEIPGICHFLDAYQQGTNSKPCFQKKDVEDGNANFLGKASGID
Protocol: Human embryonic kidney cells (HEK293), endogenously expressing soluble guanylate cyclase (sGC), were used to evaluate the activity of test compounds. Compounds stimulating the sGC enzyme should cause an increase in the intracellular concentration of cGMP. HEK 293 cells were seeded in Dulbecco's Modification of Eagle's Medium supplemented with fetal bovine serum (10% final) and penicillin (100 U/mL)/streptomycin (100 μg/mL) in a 50 μL volume at a density of 1.5×10^4 cells/well in a poly-D-lysine coated 384 well flat bottom plate. Cells were incubated overnight at 37° C. in a humidified chamber with 5% CO2. Medium was aspirated and cells were washed with 1×Hank's Buffered Saline Salt Solution (50 μL). Cells were then incubated for 15 minutes at 37° C. with 50 μL of a 0.5 mM 3-isobutyl-1-methylxanthine (IBMX) solution. The test article and Diethylenetriamine NONOate (DETA-NONOate) solutions (x μM concentration for test article solution and 10 μM concentration for DETA-NONOate solution; wherein x is one of the following concentrations)
were then added to the assay mixture and the resulting mixture was incubated at 37° C. for 20 minutes. After the 20 minute incubation, the assay mixture was aspirated and 10% acetic acid containing 150 ng/mL+3-cGMP (internal standard for LCMS) (50 μL) was added to the cells. The plate was incubated at 4° C. for 30 minutes in the acetic acid solution to stop the reaction and lyse the cells. The plates were then centrifuged at 1,000 g for 3 minutes at 4° C. and the supernatant transferred to a clean reaction plate for LCMS analysis.
cGMP concentrations were determined from each sample using the LCMS conditions below (Table 2) and calculated standard curve. The standard curve was prepared in 10% acetic acid with 150 ng/mL+3cGMP (isotopically labelled cGMP with a weight 3 units higher than wild type) with the following final concentrations of cGMP in ng/mL: 1, 5, 10, 50, 100, 250, 500, 1000, 2000.
Data were normalized to a high control using the following equation: 100*(Sample−Low Control)/(High Control−Low Control), where the low control is the average of 16 samples treated with 1% DMSO, and the high control is the average of 16 samples treated with 30 μM of Compound Y depicted below. Data were fit using a 4-parameter fit (log(agonist) vs. response—variable slope) using GraphPad Prism Software v.5. n=2 for all compounds. The Absolute EC50 was interpolated from the curve fit and is defined as the concentration at which a given compound elicits 50% of the high control response. Compounds failing to elicit a minimum response of 50% are reported as >30 μM. For compounds run in duplicate or n higher than 2, the result herein given is the geometric mean of the several results obtained.
sGC enzyme activity values in HEK cells, expressed as Absolute EC50 which is defined as the concentration at which a given compound elicits 50% of the high control response obtained with Compound Y, after normalization.

SMILES	solubility [1] [µg/mL]	EC50 ([2]; prodrug) [µM]	sGC agonism as compared to parent drug [2]	EC50 ([2]; Parent compound column) [µM]
O=P(O)(O)OC(CNc1nc(-c2cc(-c3ccon3)n(Cc3ccccc3F)n2)ncc1F)(C(F)(F)F)C(F)(F)F [Compound I-1]	66 to 1000 (≈ 107 to 1630 µM)	13	did not exhibit a high degree of sGC agonism	
O=P(O)(O)OCOC(CNc1nc(-c2cc(-c3ccon3)n(Cc3ccccc3F)n2)ncc1F)(C(F)(F)F)C(F)(F)F [Compound I-4]	71 (≈ 110 µM)	25	did not exhibit a high degree of sGC agonism	
OC(CNc1nc(-c2cc(-c3ccon3)n(Cc3ccccc3F)n2)ncc1F)(C(F)(F)F)C(F)(F)F [Intermediate 3]	2 to 3 (≈ 3.74 to 5.61 µM)			0.22
